This note sets out measurements from patent publication US7148240B2, “Aminoalkoxybenzoyl-benzofuran or benzothiophene derivatives, method for preparing same and compositions containing same” (Sanofi-Aventis, priority 2000, dated 2006).

A word on the melting point: it is the temperature, or range, at which the solid turns liquid.

`CCCCc1oc2cc(C)c(C(=O)OC)cc2c1C(=O)c1ccc(OCCCN2CCCCC2)cc1.Cl` showed a melting point of 181 to 183 °C. To `CCCCc1oc2cccc(C(=O)OC)c2c1C(=O)c1ccc(OCCCN2CCCCC2)cc1.O=C(O)C(=O)O` [Example 31, Methyl 2-butyl-3-[4-(3-(1-piperidinyl)propoxy]benzoyl]-1-benzofuran-4-carboxylate oxalate] belongs 160 °C.
